# Data from patent US10611765B2, “Pyrrolopyrimidine derivatives as Mps1/TTK kinase inhibitors” (Ohio State Innovation Foundation, priority 2014, dated 2020).
# Where two headings read alike, the source gives them in different places.
# What was measured:
# Cal-51 cells = test: Centriole assembly / centrosome amplification assay, Cal-51; assay type: cell-based
# Method: (§1) For these cell biology assays, cells were plated onto poly-L-lysine coated coverslips in 24 well dishes using the medium and growth conditions described above, but using medium containing phenol red. At 24 hours after plating, compounds (or the equivalent amount of DMSO) were added to individual wells at various concentrations. Cells were incubated for 24 hours at 37° C. BrdU was added during the last 4 hours of the incubation, after which cells were fixed in pre-chilled methanol at −20 OC for 10 minutes, stained with centrosome markers, then treated with acid to denature chromosomal DNA prior to staining for BrdU. To assess centriole biogenesis, centriole number was determined for triplicate samples in cells that had entered S-phase as judged by incorporation of BrdU. Primary antibodies used were mouse anti-γTubulin (pericentriolar material) and rabbit anti-Centrin 2 (centrioles). Secondary antibodies used were Alexa594-conjugated donkey anti-mouse and Alexa488-conjugated donkey anti-rabbit.
# For centriole assembly assays, Cal-51 and MDA-MB-468 cells were treated with candidate compounds prior to a short pulse of BrdU. Because the centriole pair is replicated at the G1/S transition, compounds that block centrosome assembly will lead to an increased number of BrdU-positive cells with two centrioles. In addition, like many breast cancer cells Cal-51 and MDA-MB-468 are capable of centrosome amplification, and compounds that block this centrosome amplification should reduce the number of BrdU-positive cells with more than four centrioles.
# [1] = target: T1, Mps1/TTK kinase (recombinant GST-Mps1) (Homo sapiens, UniProt P33981); test: Mps1 in vitro kinase assay with Cetn2 substrate; assay type: biochemical; conditions: read-out: IC50, in vitro kinase activity of Mps1
# T1 sequence (P33981 1-857): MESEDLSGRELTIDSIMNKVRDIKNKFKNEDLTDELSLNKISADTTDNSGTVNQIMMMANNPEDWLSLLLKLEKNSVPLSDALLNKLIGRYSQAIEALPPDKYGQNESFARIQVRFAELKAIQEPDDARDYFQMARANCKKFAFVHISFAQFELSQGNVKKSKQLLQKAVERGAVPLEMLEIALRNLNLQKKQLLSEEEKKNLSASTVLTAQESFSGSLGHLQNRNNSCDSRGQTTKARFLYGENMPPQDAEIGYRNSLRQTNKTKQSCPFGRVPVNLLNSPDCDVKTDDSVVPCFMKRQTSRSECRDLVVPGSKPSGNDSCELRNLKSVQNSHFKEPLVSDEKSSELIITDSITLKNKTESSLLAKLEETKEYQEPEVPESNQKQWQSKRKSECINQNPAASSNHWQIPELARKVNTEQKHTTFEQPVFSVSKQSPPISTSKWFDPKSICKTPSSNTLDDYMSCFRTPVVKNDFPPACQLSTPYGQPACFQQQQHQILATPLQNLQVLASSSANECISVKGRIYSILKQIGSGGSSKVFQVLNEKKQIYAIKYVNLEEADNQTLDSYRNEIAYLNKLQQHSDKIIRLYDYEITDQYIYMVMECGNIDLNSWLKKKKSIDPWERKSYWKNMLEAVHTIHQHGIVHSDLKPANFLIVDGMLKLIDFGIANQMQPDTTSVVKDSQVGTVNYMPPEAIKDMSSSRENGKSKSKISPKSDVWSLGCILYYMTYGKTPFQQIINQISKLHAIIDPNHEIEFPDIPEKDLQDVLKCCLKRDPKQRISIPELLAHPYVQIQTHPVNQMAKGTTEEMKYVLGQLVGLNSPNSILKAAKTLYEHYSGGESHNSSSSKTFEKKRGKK
# Method: To determine the efficacy of the compounds against Mps1/TTK kinase activity, assays were performed as previously described (11) using recombinant Mps1, Cetn2 (specific substrate), and varying concentration of compound.
# MDA-MB-468 cells = test: Centriole assembly / centrosome amplification assay, MDA-MB-468; assay type: cell-based; conditions: compared to IN-1, AZ3146 and Compound 5
# Method: as §1
# For centriole assembly assays, Cal-51 and MDA-MB-468 cells were treated with candidate compounds prior to a short pulse of BrdU. Because the centriole pair is replicated at the G1/S transition, compounds that block centrosome assembly will lead to an increased number of BrdU-positive cells with two centrioles. […]
# MDA-MB-453 = test: MTS anti-proliferative assay, MDA-MB-453; assay type: cell-based; conditions: Homo sapiens, 168 h, MDA-MB-453, luminal A, treatment for 7 days
# Method: The anti-proliferative effects and IC50 values of the compounds in the BC cell line panel were determined by MTS assay.
# The media were changed every 2-days. When the cells grew to about 80% confluence, cells were washed twice with calcium- and magnesium-free phosphate-buffered saline (PBS, pH 7.4), and then trypsinized with 0.05% trypsin-5.3 mm EDTA. The trypsinization was stopped by addition of culture medium with 5% FBS.
# The BC cells were seeded at the density of 1,000 cells per well (100 μL) into 96 well plate in DMEM/F-12 (1:1), supplemented with 5% (v/v) FCS and incubated overnight at 37° C. Test compounds are solubilized in dimethyl sulfoxide (DMSO), diluted in cell culture medium to a range of final assay concentrations of 1 nM to 10 μM, added to cells and incubated for 7 days at 37° C. The medium including the test compound are refreshed at days 3 and 5. The MTS assay are carried out by using the CellTiter 96® AQueous One Solution Cell Proliferation Assay kit following the manufacturer's instruction.
# [2] = target: Mps1 (autophosphorylation) (Homo sapiens, UniProt P33981); test: biochemical
# Method: (§2) Briefly, the inhibition potency to Mps1 kinase activity was determined by measurement of radioactive phosphotransfer to the specific substrate, Cetn2. The autophosphorylation of Mps1 was also measured using the same method without adding Cetn2 in the kinase assay reaction mixture. […] Mps1 activity was measured using 0.25 ng of recombinant GST-Mps1 protein in 50 mM TrisCl pH 7.5, 0.5 mM DTT, 10 mM MgCl2, 300 μM recombinant Cetn2 and 3 μM ^32P-γ-ATP. […] ATP was added to initiate the kinase assay, incubated at 30° C. for 30 min and five-fold volume of […] was added to quench the reaction. The whole reaction was immobilized on Immobilon-P^SQ PVDF membrane (Millipore) using a dot blotter connected to vacuum line. Each well was washed three times with 300 μL of PBS. The membrane was further washed by soaking in PBS, dried, and exposed overnight to a Phosphor Screen. The image was acquired by the Storm imaging system (Amersham). The density analyses were performed by using Image-J program, and kinetic constants were calculated by GraphPad Prism 5 software. Commercial kinase profiling assays were performed by Reaction Biology Corp., Malvern, Pa.
# JNK1 = JNK1 (Homo sapiens, UniProt P45983); conditions: read-out: IC50 JNK1; kinase profiling
# Sequence of JNK1 (P45983 whole entry): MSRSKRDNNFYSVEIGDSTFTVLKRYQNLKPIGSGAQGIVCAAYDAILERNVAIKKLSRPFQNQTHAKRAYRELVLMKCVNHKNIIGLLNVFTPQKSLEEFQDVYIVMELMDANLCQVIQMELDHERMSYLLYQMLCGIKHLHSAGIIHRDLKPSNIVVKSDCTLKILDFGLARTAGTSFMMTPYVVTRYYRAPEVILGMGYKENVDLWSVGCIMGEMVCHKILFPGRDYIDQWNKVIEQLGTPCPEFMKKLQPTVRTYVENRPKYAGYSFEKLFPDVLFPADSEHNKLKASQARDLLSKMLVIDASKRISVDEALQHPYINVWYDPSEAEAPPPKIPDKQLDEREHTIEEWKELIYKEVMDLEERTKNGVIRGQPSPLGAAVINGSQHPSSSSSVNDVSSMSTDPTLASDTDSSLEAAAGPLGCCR
# Method: as §2
# twenty common kinases = test: Kinase profiling assays for twenty common kinases; assay type: biochemical
# Method: as §2
# Cal-51 cells (tumor) = test: Tumor progression in athymic nude mice; assay type: in vivo; conditions: Cal-51 tumors, i.p. injection in DMSO, five-week study
# Method: Compound 13 in DMSO was administered to the test mice by i.p. injection. Cal-51 cells were injected to induce tumor growth. At the end of the five-week study, the mice were sacrificed, and the tumors were measured, dissected and weighed (FIGS. 6 and 7).
# [3] = additional investigations (text to Table 2)
Structure (SMILES),percentage of cells with more than four centrioles (centrosome amplification) (Cal-51 cells; Cal-51),"percentage of BrdU positive cells that have just two centrioles (centriole assembly) (Cal-51 cells; Cal-51, continued investigations)","IC50 [1, 3] [nM]",IC50 ([1]; preliminary investigations) [nM],percentage of BrdU-positive cells that have just two centrioles (MDA-MB-468 cells),percentage of cells with more than four centrioles (MDA-MB-468 cells),IC50 (MDA-MB-453) [nM],IC50 [2] [nM],IC50 (JNK1) [nM],kinases inhibited in profiling of twenty common kinases (twenty common kinases),tumor progression (Cal-51 cells (tumor))
"COc1cc(N2CCC(O)CC2)ccc1Nc1nc(Nc2ccccc2S(=O)(=O)C(C)C)c2cc[nH]c2n1 [Compound 1, 1-(4-((4-((2-(isopropylsulfonyl)phenyl)amino)-7H-pyrrolo[2,3-d]pyrimidin-2-yl)amino)-3-methoxyphenyl)piperidin-4-ol]",dose-dependent reduction,dose-dependent increase,809,155,increases,decreases,820,–,–,–,–
"COc1cc(N2CCOCC2)ccc1Nc1nc(NC2CCCCC2)c2cc[nH]c2n1 [Compound 13, N4-cyclohexyl-N2-(2-methoxy-4-morpholinophenyl)-7H-pyrrolo[2,3-d]pyrimidine-2,4-diamine]",–,–,356,30,–,–,–,312,1670,only two kinases,slowed the tumor progression
